According to patent US20140106387A1, “METHOD FOR CONTROLLING NAD(P)/NAD(P)H RATIO BY OXIDOREDUCTASE” (MD BIOALPHA CO., LTD., priority 2006, published 2014):

Experiments:
cardiomyocytes = assay: mitochondrial oxygen consumption in cardiomyocytes; format: cell-based
Text: FIG. 22 is a graph showing monitoring results of mitochondrial oxygen consumption using a Clark-type oxygen electrode;

HEK293 cells [1] = assay: intracellular ATP, ADP and AMP levels by LC-MS in HEK293; format: cell-based, human; details: HEK293 cells having no NQO1 activity, 2 hours
Procedure: Samples were analyzed using an Agilent 1100 series LC/MSD system equipped with G1322A degasser, G1312A binary pump, G1315A photo-diode-array detector, 59987A electrospray interface and 5989B mass spectrometer. ES-MS analysis was performed using an Agilent 5989 electrospray (ES) mass spectrometer (MS) with an Agilent Atmospheric Pressure Ionization (API) interface fitted with a hexapole ion guide. Chromatogram was automatically integrated with the aid of Chemstation software, and concentrations were determined using a standard calibration curve.
Acid extraction was used for analysis of an AOPN concentration in the cells and liver tissues. 400 μl of 6% HClO4 was added to the cells cultured in a 100 mm dish, whereas a two-fold volume of 6% HClO4 was added to the liver tissues which were then immediately homogenized. Each mixture was centrifuged at 14,000 g and 4° C. for 10 min, and the resulting supernatants were neutralized by addition of 1 M borate buffer (pH 11) containing 4 mM EDTA in an amount of 75%. Samples were aliquoted and stored at a temperature of −80° C.
A mobile phase was 100 mM ammonium acetate:MeOH (98:2, v/v), and preparations were filtered through a 0.22-μm Millipore filter. A flow rate was set to 0.8 mL/min and detection was made at 254 nm. Separation was carried out using a ZORBAX Bonus-RP C18 column (3.5 μm, 4.6×150 mm I.D., Waters, USA). […]

HepG2 cells = assay: calcium influx (Fluo-4) in HepG2 cells; format: cell-based, human
Procedure: Cells were grown on a coverslip in a culture medium for 24 hours, maintained in an RPMI 1640 serum-free medium for 1 hour, and pretreated with a calcium indicator Fluo-4 (5 μM) for 30 min. After pretreatment, the coverslip was mounted on a slide glass. Changes in an intracellular calcium concentration were observed using a fluorescence microscope (Carl Zeiss) for 30 sec, and cells were treated with a candidate compound (e.g. pyran-1,2-naphthoquinone) simultaneously with consecutive imaging of calcium changes using a fluorescence microscope (Carl Zeiss) for 2 sec. […] Changes in the intracellular calcium concentration were observed using a fluorescence microscope (Carl Zeiss) for 30 sec, and cells were treated with pyre-1,2-naphthoquinone (10 μM), followed by continuous shooting of calcium changes using a fluorescence microscope for 2 sec. Using an LSM Image Browser program (Carl Zeiss), 300 images taken for 10 min every 2 seconds were sorted and ordered in a time sequence and plotted on a graph.
For determination of the inner mitochondrial membrane potential (ΔΨm), 20 nM of TMRE (tetramethylrhodamine ethyl ester) as a fluorescent indicator was continuously applied to be loaded on cells. In order to monitor mitochondrial Ca^2+, cells on glass coverslips were loaded with 10 μM Rhod-2 AM via cold loading/warm incubation. In order to monitor cytosolic Ca^2+, cells were co-loaded with 10 μM Fluo-4 AM at 37′C for 30 min. […] Images for TMRE (red fluorescence), Rhod-2 (red fluorescence) and Fluo-4 (green fluorescence) were obtained using an inverted Zeiss 510META laser-scanning confocal microscope equipped with ×63 numerical aperture, 1.4 oil-immersion planapochromat lens. Green fluorescence and red fluorescence were illuminated with light of 488 nm and 543 nm. […]
Cells were cultured for 24 hours and then pre-treated with Fluo-4 for 30 min. Cells immobilized on a coverslip were transferred to a slide glass and treated with pyrano-1,2-naphthoquinone (10 μM), and at the same time images were taken every 2 seconds for 10 min using a fluorescence microscope.

[2] = beta-oxidation assay: 14C-palmitic acid incorporated into liver triglyceride; format: in vivo, mouse; details: DIO mice fed 50 mg/kg for 7 days; liver removed 10 min after 14C-palmitic acid IV
Procedure: The injection solution prepared in Section 1 was injected into tail veins of DIO mice at a dose of 10 microCi/150 μl/head, and the liver was removed 10 min later.
The removed liver was immediately and rapidly frozen in liquid nitrogen and weighed. A 5-fold weight of a 5 mM Tris-HCl buffer solution containing 0.25 M sucrose, 5 mM MgCl2, 1 mM mercaptoethanol and 0.5 mM EDTA was added to the liver tissues which were then homogenized. Equal amounts of each sample was taken and transferred to fresh 15 mL containers to which a 2.5-fold amount of C/M solution (chloroform:MetOH=2:1) was added, respectively. The mixtures were thoroughly mixed using a homogenizer for 2 min, centrifuged at 2500 rpm for 20 min to separate chloroform layers that were then transferred to fresh containers. The remaining materials were thoroughly mixed with 2-fold amounts of the C/M solution for 2 min, and centrifuged to separate chloroform layers. […] Then, more than 10-fold volumes of a toluene cocktail solution were added to chloroform layers of the vials and the mixtures were thoroughly mixed using a stirrer, and radioactivity was measured using a scintillation counter.
10 μCi of 14C-palmitic acid was IV-injected to a tail vein of mice and 10 min later the liver was removed and homogenized Fat was extracted from the homogenizate, and radioactivity was measured by a liquid scintillation counter.

HEK293 cells [3] = assay: mitochondrial membrane potential (TMRE fluorescence) in HEK293 cells; format: cell-based, human
Procedure: For determination of the inner mitochondrial membrane potential (ΔΨm), 20 nM of TMRE (tetramethylrhodamine ethyl ester) as a fluorescent indicator was continuously applied to be loaded on cells. In order to monitor mitochondrial Ca^2+, cells on glass coverslips were loaded with 10 μM Rhod-2 AM via cold loading/warm incubation. In order to monitor cytosolic Ca^2+, cells were co-loaded with 10 μM Fluo-4 AM at 37′C for 30 min. The cells were washed twice with a KB solution, and mounted in a perfusion chamber. Fluorescent imaging was taken using a confocal laser scanning microscope (LSM-510 META, Carl Zeiss) at a magnification of ×200 and ×400, in conjunction with appropriate laser lines and a filter set. Image analysis was carried out using LSM-510 META software (Zeiss). Images for TMRE (red fluorescence), Rhod-2 (red fluorescence) and Fluo-4 (green fluorescence) were obtained using an inverted Zeiss 510META laser-scanning confocal microscope equipped with ×63 numerical aperture, 1.4 oil-immersion planapochromat lens. Green fluorescence and red fluorescence were illuminated with light of 488 nm and 543 nm. Incident light was passed through a 545 nm dichroic mirror and observed via a 500 to 530 nm band-pass (green) filter and a 560 nm long-pass (red) barrier filter.
However, such effects were not observed in HEK293 cells. […]

Structure (SMILES): CC1(C)CCC2=C(O1)c1ccccc1C(=O)C2=O [βL, 2,2-Dimethyl-3,4-dihydro-2H-benzo[h]chromene-5,6-dione]
- mitochondrial oxygen consumption (cardiomyocytes): increased
- intracellular ATP level (HEK293 cells [1]): no significant changes in the intracellular ATP level
- cytosolic Ca2+ concentration ([Ca2+]c) and mitochondrial Ca2+ concentration ([Ca2+]m) (HepG2 cells; Fluo4 and Rhod-2-AM fluorescence, cells not given): increases
- time of calcium peak after treatment (HepG2 cells; HepG2, 10 μM): about 10 sec
- amount of 14C-palmitic acid incorporated into hepatic triglyceride (TG), lower than vehicle-treated mice [2]: about 45%
- effect on TMRE fluorescence / ΔΨm (HEK293 cells [3]): not observed
